Results as given in patent US20110135634A1, “METHODS OF INHIBITING INFECTION BY DIVERSE SUBTYPES OF DRUG-RESISTANT HIV-1” (priority 2007, published 2011).

Experiments:
[1] = test system: HIV-1; details: dose-dependent, treatment period of 10-14 days; cited from earlier work
[2] = target: HIV-1 SF162 gp120 (HIV-1 strain SF162) (UniProt P19550); test: cell-based or functional assay
[3] = target: HIV-1 JR-FL gp120 (HIV-1 strain JR-FL); test: cell-based or functional assay
[4] = test system: reporter viruses pseudotyped with HIV-1JR-FL envelope (U87-CD4-CCR5 cells); test: microbe, parasite or virus in culture; assay type: cell-based
[5] = target: CD4 (human) (UniProt P01730); test: cell-based or functional assay
[6] = test system: primary R5 HIV-1 isolates JR-FL and Case C 1/85 (CC1/85); test: In vitro resistance selection and susceptibility testing on PBMC; assay type: cell-based; details: p24 ELISA
Protocol: For susceptibility testing, viruses were cultured in vitro on stimulated PBMC. In the presence and absence of serially diluted drug, and the extent of viral replication was determined by p24 ELISA.

[7] = target: T1, CCR5 on CEM.NKR-CCR5 cells (Homo sapiens, UniProt P51681); test: Competition binding: inhibition of PRO 140-PE binding; details: CEM.NKR-CCR5 cells, flow cytometry
T1 construct: host or cells: CEM.NKR-CCR5 (transduced human T cell leukemia line)
Protocol: Azide was added to block CCR5 internalization during the assay.

[8] = test system: reporter viruses pseudotyped with HIV-1SF162 envelope (U87-CD4-CCR5 cells); test: HIV-1 pseudovirus assay, SF162 envelope; assay type: cell-based; details: HIV-1 envelope SF162, 1st inhibitor alone
Source text: A self-inactivating (SIN) vector was derived from the pNL4-3ΔEnv-luciferase vector (Dragic et al. 1996) by deleting 507 basepairs in the U3 region of the 3′ long terminal repeat (LTR) so as to remove the TATA box and transcription factor binding sites. The human cytomegalovirus promoter was inserted upstream of the luciferase (luc) gene to enable expression of luciferase following integration.
Reporter viruses pseudotyped with HIV-1JR-FL or HIV-1SF162 envelopes were generated by cotransfection of 293T cells with the SIN vector and the appropriate pcDNA env-expressing vector as previously described (Dragic et al. 1996). […] Cultures were incubated for 72 h at 37° C. in DMEM containing 10% fetal bovine serum, […] puromycin, 0.3 mg/mL geneticin, antibiotics, and 0.5% DMSO. Luciferase activity (relative light units or RLU) was measured using. BrightGlo reagent (Promega, Madison, Wis.) according to the manufacturer's instructions.
Experimental design and data analysis were based on the combination index (CI) method (Chou et al. 1991; Chou et al. 1984). […] The mutually exclusive CI formula was used for combinations of CCR5 inhibitors, while the mutually non-exclusive formula was utilized for combinations of inhibitors to distinct targets (Chou et al. 1991). Each test was conducted 4-12 times. Synergy, additivity and antagonism are indicated by CI<1, CI=1 and CI>1, respectively.

T1 sequence (P51681 whole entry): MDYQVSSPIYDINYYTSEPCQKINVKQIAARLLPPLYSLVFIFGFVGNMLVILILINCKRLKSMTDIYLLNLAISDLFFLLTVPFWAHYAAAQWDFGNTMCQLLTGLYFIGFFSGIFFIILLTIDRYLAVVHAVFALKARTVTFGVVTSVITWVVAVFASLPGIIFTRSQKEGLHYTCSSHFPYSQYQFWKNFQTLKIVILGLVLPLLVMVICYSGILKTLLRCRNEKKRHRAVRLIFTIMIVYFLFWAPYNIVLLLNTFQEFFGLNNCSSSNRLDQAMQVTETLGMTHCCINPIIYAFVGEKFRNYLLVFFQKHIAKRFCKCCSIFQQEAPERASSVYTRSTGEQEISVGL

Compound: CCO/N=C(\c1ccc(Br)cc1)C1CCN(C2(C)CCN(C(=O)c3c(C)cc[n+]([O-])c3C)CC2)CC1 [SCH-C]
- mean reductions in HIV-1 RNA levels [1]: ~1 log10

Compound: PRO 542 (CD4-IgG2) (from UniProt P01730 26-204; P01730 26-203) (Fc fusion)
- IC50, HIV-1 reporter virus pseudotyped with SF162 envelope, U87-CD4-CCR5 cells [2]: 0.36 nM
- IC90, HIV-1 reporter virus pseudotyped with SF162 envelope, U87-CD4-CCR5 cells [2]: 7.1 nM
- IC50, HIV-1 reporter virus pseudotyped with JRFL envelope, U87-CD4-CCR5 cells [3]: 0.19 nM
- IC90, HIV-1 reporter virus pseudotyped with JRFL envelope, U87-CD4-CCR5 cells [3]: 2.9 nM

Compound: RANTES: CC-chemokine, natural peptide ligand of CCR5
- inhibition of HIV-1 pseudovirus entry ([4]; compound alone (data not shown)): Neither TAK-779 nor RANTES mediated consistent, high-level inhibition

Compound: anti-CD4 mAb Leu-3A (antibody)
- HIV-1 Env-mediated cell-cell fusion, RET assay [5]: 500 ng/mL

Compound: COC[C@@H](c1ccc(C(F)(F)F)cc1)N1CCN(C2(C)CCN(C(=O)c3c(C)ncnc3C)CC2)C[C@@H]1C [SCH-D, 1-[(4,6-dimethyl-5-pyrimidinyl)carbonyl]-4-[4-[2-methoxy-1(R)-4-(trifluoromethyl)phenyl]ethyl-3(S)-methyl-1-piperazinyl]-4-methylpiperidine]
- inhibition of PRO 140 escape mutants [6]: efficiently inhibited
- mean reductions in HIV-1 RNA levels [1]: ~1 log10
- IC90 ([4]; HIV-1 envelope JRFL, 1st inhibitor alone, read-out: IC90): 44 nM
- inhibition of PRO 140-PE binding (in words) [7]: modest levels of inhibition
- IC50 ([8]; read-out: IC50): 0.34 nM
- IC90 ([8]; read-out: IC90): 14 nM
